The record followed here is patent US6620811B2, “Isonicotin- and nicotinamide derivatives of benzothiazoles” (Hoffmann-La Roche Inc., priority 2001, dated 2003).

For one data set, the target named is T1, human adenosine A2A receptor (Homo sapiens, UniProt P29274).
T1 construct: expressed in transfected cells; host or cells: CHO cells, semliki forest virus expression system; membrane preparation
T1 sequence (P29274 whole entry): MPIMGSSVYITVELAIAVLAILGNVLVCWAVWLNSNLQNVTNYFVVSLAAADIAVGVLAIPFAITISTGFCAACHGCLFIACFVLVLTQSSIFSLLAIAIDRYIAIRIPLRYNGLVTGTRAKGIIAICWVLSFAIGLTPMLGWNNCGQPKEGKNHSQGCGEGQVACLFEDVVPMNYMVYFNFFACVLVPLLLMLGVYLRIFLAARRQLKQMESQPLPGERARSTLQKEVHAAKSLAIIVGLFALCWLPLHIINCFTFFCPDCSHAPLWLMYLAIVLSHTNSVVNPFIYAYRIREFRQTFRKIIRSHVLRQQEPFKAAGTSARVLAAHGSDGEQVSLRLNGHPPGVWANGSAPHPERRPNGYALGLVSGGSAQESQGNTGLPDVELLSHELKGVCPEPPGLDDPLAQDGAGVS
In words: Human adenosine A2A receptor [3H]-SCH-583261 binding assay (SPA, CHO cell membranes). Conditions: [3H]-SCH-583261 1 nM; membranes of CHO cells expressing the recombinant receptor; Ki by Cheng-Prussoff equation. As to the method:
Human Adenosine A2A Receptor
The human adenosine A2A receptor was recombinantly expressed in chinese hamster ovary (CHO) cells using the semliki forest virus expression system. Cells were harvested, washed twice by centrifugation, homogenised and again washed by centrifugation. The final washed membrane pellet was suspended in a Tris (50 mM) buffer containing 120 mM NaCl, 5 mM KCl, 2 mM CaCl2 and 10 mM MgCl2 (pH 7.4) (buffer A). The [^3H]-SCH-583261 (Dionisotti et al., 1997, Br J Pharmacol 121, 353; 1 nM) binding assay was carried out in 96-well plates in the presence of 2.5 μg of membrane protein, 0.5 mg of Ysi-poly-1-lysine SPA beads and 0.1 U adenosine deaminiase in a final volume of 200 μl of buffer A. Non-specific binding was defined using xainthine amine congener (XAC; 2 μM). Compounds were tested at 10 concentrations from 10 μM-0.3 nM. All assays were conducted in duplicate and repeated at least two times. Assay plates were incubated for 1 hour at room temperature before centrifugation and then bound ligand determined using a Packard Topcount scintillation counter. IC50 values were calculated using a non-linear curve fitting program and Ki values calculated using the Cheng-Prussoff equation.
Consider `COc1ccc(N2CCCCC2)c2sc(NC(=O)c3ccnc(CN4CCOCC4)c3)nc12` [Example 71, N-(4-Methoxy-7-piperidin-1-yl-benzothiazol-2-yl)-2-morpholin-4-yl-methyl-isonicotinamide], for which the “hA2 (pKi)” value turned out to be 8.7.

Staying with this data set, now noted: [3H]-SCH-583261 1 nM; membranes of CHO cells expressing the recombinant receptor; Ki by Cheng-Prussoff equation; read-out: hA2 (pKi) (converted).
As for `CCSCc1cc(C(=O)Nc2nc3c(OC)ccc(N4CCOCC4)c3s2)ccn1` [Example 103, 2-Ethylsulfanylmethyl-N-(4-methoxy-7-morpholin-4-yl-benzothiazol-2-yl)-isonicotinamide], the Ki is 1.58 nM.

Turning to `CCOCCN(C)Cc1cc(C(=O)Nc2nc3c(OC)ccc(N4CCOCC4)c3s2)ccn1` [Example 104, 2-{[(2-Ethoxy-ethyl)-methyl-amino]-methyl}-N-(4-methoxy-7-morpholin-4-yl-benzothiazol-2-yl)-isonicotinamide], the Ki was 3.16 nM.

`COc1ccc(N2CCOCC2)c2sc(NC(=O)c3ccnc(CN4CCC(O)CC4)c3)nc12` [Example 102, 2-(4-Hydroxy-piperidin-1-yl-methyl)-N-(4-methoxy-7-morpholin-4-yl-benzothiazol-2-yl)-isonicotinamide]: the Ki is 2 nM.

As for `COc1ccc(N2CCOCC2)c2sc(NC(=O)c3ccnc(OC4CCCC4)c3)nc12` [Example 85, 2-Cyclopentyloxy-N-(4-methoxy-7-morpholin-4-yl-benzothiazol-2-yl)-isonicotinamide], the Ki was 2.95 nM.

As to `CCOC1CN(c2cc(C(=O)Nc3nc4c(OC)ccc(N5CCOCC5)c4s3)ccn2)C1` [Example 76, 2-(3-Ethoxy-azetidin-1-yl)-N-(4-methoxy-7-morpholin-4-yl-benzothiazol-2-yl)-isonicotinamide], the Ki is 1.74 nM.

For the compound `COc1ccc(N2CCCCC2)c2sc(NC(=O)c3ccnc(N4CCN(C)CC4)c3)nc12` [Example 100, N-(4-Methoxy-7-piperidin-1-yl-benzothiazol-2-yl)-2-(4-methyl-piperazin-1-yl)-isonicotinamide], the Ki is 1.55 nM.

For `COc1cc(C(=O)Nc2nc3c(OC)ccc(-c4ccccc4)c3s2)ccn1` [Example 101, 2-Methoxy-N-(4-methoxy-7-phenyl-benzothiazol-2-yl)-isonicotinamide], the Ki was 1.26 nM.

As for `COc1ccc(N2CCOCC2)c2sc(NC(=O)c3ccnc(NC4CCCC4)c3)nc12` [Example 89, 2-Cyclopentylamino-N-(4-methoxy-7-morpholin-4-yl-benzothiazol-2-yl)-isonicotinamide], the Ki is 1.48 nM.

Take `COc1ccc(N2CCOCC2)c2sc(NC(=O)c3ccnc(OCc4ccccn4)c3)nc12` [Example 6, N-(4-Methoxy-7-morpholin-4-yl-benzothiazol-2-yl)-2-(pyridin-2-ylmethoxy)-isonicotinamide]: the Ki was 1.15 nM.

In the case of `COc1ccc(N2CCOCC2)c2sc(NC(=O)c3ccnc(N4CCS(=O)(=O)CC4)c3)nc12` [Example 73, 2-(1,1-Dioxo-1l6-thiomorpholin-4-yl)-N-(4-methoxy-7-morpholin-4-yl-benzothiazol-2-yl)-isonicotinamide], the Ki is 1.82 nM.

Consider `COc1ccc(N2CCOCC2)c2sc(NC(=O)c3ccnc(OCCNC(C)=O)c3)nc12` [Example 92, 2-(2-Acetylamino-ethoxy)-N-(4-methoxy-7-morpholin-4-yl-benzothiazol-2-yl)-isonicotinamide], for which the Ki was 1.58 nM.

Consider `COCCNCc1cc(C(=O)Nc2nc3c(OC)ccc(N4CCOCC4)c3s2)ccn1` [Example 47, 2-[(2-Methoxy-ethylamino)-methyl]-N-(4-methoxy-7-morpholin-4-yl-benzothiazol-2-yl)-isonicotinamide], for which the Ki was 2.51 nM.

As for `COc1ccc(N2CCOCC2)c2sc(NC(=O)c3ccnc(OCCN4CCCC4=O)c3)nc12` [Example 17, N-(4-Methoxy-7-morpholin-4-yl-benzothiazol-2-yl)-2-[2-(2-oxo-pyrrolidin-1-yl)-ethoxy]-isonicotinamide], the Ki was 2.34 nM.

`COc1ccc(N2CCOCC2)c2sc(NC(=O)c3ccnc(N4CCC4)c3)nc12` [Example 26, 2-Azetidin-1-yl-N-(4-methoxy-7-morpholin-4-yl-benzothiazol-2-yl)-isonicotinamide]: the Ki is 0.955 nM.

As to `COc1ccc(N2CCOCC2)c2sc(NC(=O)c3ccnc(NCCN(C)C)c3)nc12` [Example 88, 2-(2-Dimethylamino-ethylamino)-N-(4-methoxy-7-morpholin-4-yl-benzothiazol-2-yl)-isonicotinamide], the Ki is 0.457 nM.

Take `CCCN(C)c1cc(C(=O)Nc2nc3c(OC)ccc(N4CCOCC4)c3s2)ccn1` [Example 94, N-(4-Methoxy-7-morpholin-4-yl-benzothiazol-2-yl)-2-(methyl-propyl-amino)-isonicotinamide]: the Ki was 1.2 nM.

In the case of `COC(=O)N(C)Cc1cc(C(=O)Nc2nc3c(OC)ccc(N4CCOCC4)c3s2)ccn1` [Example 65, [4-(4-Methoxy-7-morpholin-4-yl-benzothiazol-2-yl-carbamoyl)-pyridin-2-ylmethyl]-methyl-carbamic Acid Methyl Ester], the Ki is 3.16 nM.

System in a further data set: not given
Assay: not given
Details: not given
In general, melting point refers to the temperature, or range, at which the solid turns liquid. Regarding `CCSCc1cc(C(=O)Nc2nc3c(OC)ccc(N4CCOCC4)c3s2)ccn1` [Example 103, 2-Ethylsulfanylmethyl-N-(4-methoxy-7-morpholin-4-yl-benzothiazol-2-yl)-isonicotinamide], the melting point fell in the range of 158 to 159 °C.

Compound `CCOCCN(C)Cc1cc(C(=O)Nc2nc3c(OC)ccc(N4CCOCC4)c3s2)ccn1` [Example 104, 2-{[(2-Ethoxy-ethyl)-methyl-amino]-methyl}-N-(4-methoxy-7-morpholin-4-yl-benzothiazol-2-yl)-isonicotinamide] came in with a melting point of 159 to 160 °C.

`COc1ccc(N2CCOCC2)c2sc(NC(=O)c3ccnc(CN(C)C(C)=O)c3)nc12` [Example 108, 2-[(Acetyl-methyl-amino)-methyl]-N-(4-methoxy-7-morpholin-4-yl-benzothiazol-2-yl)-isonicotinamide] showed a melting point of 228 to 230 °C.

Turning to `COC[C@H]1CCN(Cc2cc(C(=O)Nc3nc4c(OC)ccc(N5CCOCC5)c4s3)ccn2)C1` [Example 106, (S)-2-(3-Methoxymethyl-pyrrolidin-1-ylmethyl)-N-(4-methoxy-7-morpholin-4-yl-benzothiazol-2-yl)-isonicotinamide], the melting point lay within 93 to 96 °C.

As for `COc1ccc(N2CCOCC2)c2sc(NC(=O)c3ccnc(CN4CCC(O)CC4)c3)nc12` [Example 102, 2-(4-Hydroxy-piperidin-1-yl-methyl)-N-(4-methoxy-7-morpholin-4-yl-benzothiazol-2-yl)-isonicotinamide], the melting point stood at 125 °C.

On to `COC[C@@H]1CCCN1Cc1cc(C(=O)Nc2nc3c(OC)ccc(N4CCOCC4)c3s2)ccn1` [Example 105, (S)-2-(2-Methoxymethyl-pyrrolidin-1-ylmethyl)-N-(4-methoxy-7-morpholin-4-yl-benzothiazol-2-yl)-isonicotinamide], for which the melting point was 110 to 113 °C.

`COc1ccc(N2CCOCC2)c2sc(NC(=O)c3ccnc(Cn4ccnc4C)c3)nc12` [Example 107, N-(4-Methoxy-7-morpholin-4-yl-benzothiazol-2-yl)-2-(2-methyl-imidazol-1-ylmethyl)-isonicotinamide] registered a melting point of 264 to 265 °C.
